Reference: US8563729B2, “Thienopyridone derivatives as AMP-activated protein kinase (AMPK) activators” (Merck Patent GmbH, priority 2008, dated 2013)

What was measured:
[1] = molecular target: T1, AMPK protein (recombinant α1β1γ2) (Homo sapiens, UniProt Q13131+Q9Y478); experiment: AMPK enzymatic activity (Delfia, AMARA peptide substrate); format: biochemical; conditions: compound 30 μM vs AMP 30 μM; 125 μM ATP; ratio 90% or higher = direct activator
T1 construct: made in house; host or cells: E. coli
Protocol: The following biological test allows the determination of the efficacy of such compounds of formula (I) onto AMPK protein (recombinant α1β1γ2).
Human recombinant AMPK enzyme was expressed in E. Coli and was reactivated in vitro by LKB1 prior to enzyme activity determination.
AMPK enzyme activities were assayed by using A Delfia technology. AMPK enzyme activities were carried out in microtiter plates (50 mM Hepes buffer, pH 7.4 with 125 μM ATP respectively) in the presence of a synthetic peptide substrate (AMARAASAAALARRR, the “AMARA” peptide) and activators in serial dilutions. Reactions were initiated by the addition of AMPK (50-100 ng). Following mixing, the plates were incubated for 30 min at room temperature. Enzyme activity was assayed by using an anti-phosphoserine antibody to measure the quantity of phosphate incorporated into the AMARAA.
(§1) N°: Number of the molecule
Activity: Ratio between the % of control (basal activity) of compound of formula (I) at 30 μM and the % of control (basal activity) of AMP (natural substrate) at 30 μM.
Compounds of formula (I) in the table II are considered as direct activator of AMPK if the ratio is 90% or higher.

H-2 Kb cells = experiment: Glucose uptake in H-2 Kb cells (in vitro cellular test); format: cell-based, mouse; conditions: H-2 Kb cells differentiated in muscle, 4 hours incubation, 2-deoxy-D-[1,2 3H] glucose uptake 10 min
Protocol: Glucose Uptake in H-2 Kb Cells (In Vitro Cellular Test)
The following cellular test allows the determination of the effect of AMPK activators such as compounds of formula (I) onto glucose uptake in a muscle cellular model.
H-1-2 Kb cells derived from heterozygous H-2 Kb tsA58 transgenic mouse were grown in 24-well in plates coated with matrigel and were cultured at 33° C. for 4 days under permissive conditions, as described previously by Fryer et al. (Diabetes 49 (12): 1978, 2000).
For differentiation in muscle, cells were switched to non-permissive culture conditions (37° C. in the absence of interferon-γ). After 3 days, cells were incubated for 4 hours in DMEM 1 g/l glucose culture medium containing different concentrations of the tested molecules. Then glucose uptake was measured by incubating the cells for 10 min with radiolabelled 2-deoxy-D-[1,2 ^3H] glucose. Glucose uptake was terminated by rapidly washing the plates 2 times with ice-cold NaCl 0.9%. The cells were then solubilized in 0.1N NaOH for 30 min. Radioactivity was determined by liquid scintillation counting.
as §1
Activity (table III): Concentration of compound (I) for a glucose uptake equal or higher to glucose uptake induced by insulin (170 nM)
^++ or **concentration of compound (I) ≦10 micro Molar
^+ or *concentration of compound (I) >10 micro Molar

T1 sequence (Q13131 whole entry): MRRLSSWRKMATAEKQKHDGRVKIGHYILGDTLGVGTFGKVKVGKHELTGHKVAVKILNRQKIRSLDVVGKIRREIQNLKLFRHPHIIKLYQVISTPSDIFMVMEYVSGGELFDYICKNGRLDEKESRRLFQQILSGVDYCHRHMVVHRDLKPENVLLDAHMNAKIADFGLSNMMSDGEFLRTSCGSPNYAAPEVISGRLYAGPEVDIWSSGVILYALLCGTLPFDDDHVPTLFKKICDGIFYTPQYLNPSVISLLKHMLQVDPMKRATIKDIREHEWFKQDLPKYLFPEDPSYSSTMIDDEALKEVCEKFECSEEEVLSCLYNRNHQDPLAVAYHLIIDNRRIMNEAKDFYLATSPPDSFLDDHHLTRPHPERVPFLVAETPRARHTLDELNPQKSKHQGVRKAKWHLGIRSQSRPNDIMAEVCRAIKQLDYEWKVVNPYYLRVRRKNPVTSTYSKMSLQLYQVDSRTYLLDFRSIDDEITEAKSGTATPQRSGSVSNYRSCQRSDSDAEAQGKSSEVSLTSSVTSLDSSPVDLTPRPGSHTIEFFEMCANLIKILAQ
T1 sequence (Q9Y478 whole entry): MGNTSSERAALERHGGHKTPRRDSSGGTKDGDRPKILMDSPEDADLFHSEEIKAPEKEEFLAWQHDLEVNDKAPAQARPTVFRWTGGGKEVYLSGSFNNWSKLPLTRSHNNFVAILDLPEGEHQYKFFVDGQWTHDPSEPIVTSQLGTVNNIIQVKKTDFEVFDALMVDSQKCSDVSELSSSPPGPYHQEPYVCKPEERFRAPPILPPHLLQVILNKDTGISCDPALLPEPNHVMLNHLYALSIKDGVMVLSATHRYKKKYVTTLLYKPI
T1 sequence (Q9UGJ0 whole entry partner): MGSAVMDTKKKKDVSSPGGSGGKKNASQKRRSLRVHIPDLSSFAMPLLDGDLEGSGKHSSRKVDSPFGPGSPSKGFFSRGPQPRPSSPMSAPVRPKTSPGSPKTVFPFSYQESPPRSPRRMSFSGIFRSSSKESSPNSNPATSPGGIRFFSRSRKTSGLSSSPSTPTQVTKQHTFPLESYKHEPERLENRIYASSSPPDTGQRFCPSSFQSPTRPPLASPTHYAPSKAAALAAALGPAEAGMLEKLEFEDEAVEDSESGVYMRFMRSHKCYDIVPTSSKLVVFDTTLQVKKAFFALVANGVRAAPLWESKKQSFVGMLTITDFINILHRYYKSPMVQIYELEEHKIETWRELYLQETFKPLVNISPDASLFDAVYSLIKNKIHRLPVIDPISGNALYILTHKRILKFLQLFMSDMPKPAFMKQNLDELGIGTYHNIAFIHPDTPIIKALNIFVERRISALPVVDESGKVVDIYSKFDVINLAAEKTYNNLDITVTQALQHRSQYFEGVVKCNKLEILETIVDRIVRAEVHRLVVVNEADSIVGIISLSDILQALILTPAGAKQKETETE

Compound	activity: Ratio between the % of control (basal activity) of compound of formula (I) at 30 μM and the % of control (basal activity) of AMP at 30 μM [1]	Activity (table III): Concentration of compound (I) for a glucose uptake equal or higher to glucose uptake induced by insulin (170 nM) (H-2 Kb cells)
N#Cc1sc2[nH]c(=O)c(-c3ccccc3)c(O)c2c1-c1ccccc1 [Compound 9, 2-cyano-3,5-diphenyl-4-hydroxy-6,7-dihydro-thieno[2,3-]pyridin-6-one]	410%	* (^+ or *concentration of compound (I) >10 micro Molar)
Cc1sc2[nH]c(=O)c(-c3ccccc3)c(O)c2c1-c1ccccc1 [Compound 10]	96%	* (^+ or *concentration of compound (I) >10 micro Molar)
COc1ccc(-c2c(O)c3c(-c4ccccc4)c(C)sc3[nH]c2=O)cc1 [Compound 13]	126%	* (^+ or *concentration of compound (I) >10 micro Molar)
Cc1sc2[nH]c(=O)c(-c3ccc(O)cc3)c(O)c2c1-c1ccccc1 [Compound 14]	116%	* (^+ or *concentration of compound (I) >10 micro Molar)
COc1cccc(-c2c(O)c3c(-c4ccccc4)c(C)sc3[nH]c2=O)c1 [Compound 15]	181%	* (^+ or *concentration of compound (I) >10 micro Molar)
COc1ccc(-c2c(O)c3c(-c4ccccc4)csc3[nH]c2=O)cc1 [Compound 19]	96%	* (^+ or *concentration of compound (I) >10 micro Molar)
O=c1[nH]c2scc(-c3ccccc3)c2c(O)c1-c1ccc(O)cc1 [Compound 20]	99%	* (^+ or *concentration of compound (I) >10 micro Molar)
CN(C)c1ccc(-c2c(O)c3c(-c4ccccc4)csc3[nH]c2=O)cc1 [Compound 22]	121%	** (^++ or **concentration of compound (I) ≦10 micro Molar)
COc1cccc(-c2c(O)c3c(-c4ccccc4)csc3[nH]c2=O)c1 [Compound 23]	202%	* (^+ or *concentration of compound (I) >10 micro Molar)
O=c1[nH]c2scc(-c3ccc(Cl)cc3)c2c(O)c1-c1ccccc1 [Compound 26]	128%	* (^+ or *concentration of compound (I) >10 micro Molar)
O=c1[nH]c2scc(-c3ccc(F)cc3)c2c(O)c1-c1ccccc1 [Compound 27]	114%	* (^+ or *concentration of compound (I) >10 micro Molar)
O=c1[nH]c2scc(-c3ccc4ccccc4c3)c2c(O)c1-c1ccccc1 [Compound 33]	201%	* (^+ or *concentration of compound (I) >10 micro Molar)
O=c1[nH]c2scc(-c3ccc4ccccc4c3O)c2c(O)c1-c1ccccc1 [Compound 34]	625%	* (^+ or *concentration of compound (I) >10 micro Molar)
Cc1ccc(-c2csc3[nH]c(=O)c(-c4ccccc4)c(O)c23)cc1 [Compound 35]	126%	** (^++ or **concentration of compound (I) ≦10 micro Molar)
O=c1[nH]c2scc(-c3ccc(C(F)(F)F)cc3)c2c(O)c1-c1ccccc1 [Compound 36]	121%	* (^+ or *concentration of compound (I) >10 micro Molar)
COc1cccc(-c2csc3[nH]c(=O)c(-c4ccccc4)c(O)c23)c1 [Compound 47]	117%	* (^+ or *concentration of compound (I) >10 micro Molar)

Compound	activity: Ratio between the % of control (basal activity) of compound of formula (I) at 30 μM and the % of control (basal activity) of AMP at 30 μM [1]	Activity (table III): Concentration of compound (I) for a glucose uptake equal or higher to glucose uptake induced by insulin (170 nM) (H-2 Kb cells)
COc1ccc(-c2csc3[nH]c(=O)c(-c4ccccc4)c(O)c23)c(F)c1 [Compound 63]	115%	* (^+ or *concentration of compound (I) >10 micro Molar)
Cc1ccc(-c2csc3[nH]c(=O)c(-c4ccccc4)c(O)c23)c(O)c1 [Compound 83, 4-hydroxy-3-(2-hydroxy-4-methylphenyl)-5-phenyl-6,7-dihydro-thieno[2,3-b]pyridin-6-one]	403%	* (^+ or *concentration of compound (I) >10 micro Molar)
Cc1ccc(-c2c(Cl)sc3[nH]c(=O)c(-c4cccc(C#N)c4)c(O)c23)c(O)c1 [Compound 101]		* (^+ or *concentration of compound (I) >10 micro Molar)
Cc1ccc(-c2c(Cl)sc3[nH]c(=O)c(-c4ccccc4)c(O)c23)cc1O [Compound 102]		** (^++ or **concentration of compound (I) ≦10 micro Molar)
COc1cc(-c2c(Cl)sc3[nH]c(=O)c(-c4ccccc4)c(O)c23)ccc1C [Compound 103]		* (^+ or *concentration of compound (I) >10 micro Molar)
NC(=NO)c1cccc(-c2c(O)c3c(-c4ccccc4)c(Cl)sc3[nH]c2=O)c1 [Compound 146]	103%	
CNC(=O)c1ccc(-c2c(O)c3c(-c4ccccc4)c(Cl)sc3[nH]c2=O)cc1 [Compound 150]	130%	
NC(=O)c1ccc(-c2c(O)c3c(-c4ccccc4)c(Cl)sc3[nH]c2=O)cc1 [Compound 151]	134%	
O=C(O)c1ccc(-c2c(O)c3c(-c4ccccc4)c(Cl)sc3[nH]c2=O)cc1 [Compound 153]	111%	
CS(=O)(=O)c1ccc(-c2c(O)c3c(-c4ccccc4)c(Cl)sc3[nH]c2=O)cc1 [Compound 154]	131%	
NC(=NO)c1ccc(-c2c(O)c3c(-c4ccccc4)c(Cl)sc3[nH]c2=O)cc1 [Compound 155]	95%	
O=c1[nH]c2sc(Cl)c(-c3ccccc3)c2c(O)c1-c1ccccc1OCc1ccccc1 [Compound 158]	110%	
O=c1[nH]c2sc(Cl)c(-c3ccccc3)c2c(O)c1-c1ccccc1O [Compound 159]	164%	
O=c1[nH]c2sc(Cl)c(-c3ccc(F)cc3)c2c(O)c1-c1ccc(F)cc1 [Compound 203]	251%	
Cc1ccc(-c2c(O)c3c(-c4ccc(F)cc4O)c(Cl)sc3[nH]c2=O)cc1 [Compound 214]	207%	
